Measurements: PMC12019385 (Scientific Reports, 2025)

Assays:
[1] = biological target: Hsp70 A (heat shock 70 kDa protein A) (Caenorhabditis elegans, UniProt P09446); experiment: microscale thermophoresis; format: binding
[2] = biological target: V-ATPase A (V-type proton ATPase catalytic subunit A) (Caenorhabditis elegans, UniProt Q9XW92); experiment: microscale thermophoresis; format: binding
Sequence of V-ATPase A (V-type proton ATPase catalytic subunit A) (Q9XW92 whole entry): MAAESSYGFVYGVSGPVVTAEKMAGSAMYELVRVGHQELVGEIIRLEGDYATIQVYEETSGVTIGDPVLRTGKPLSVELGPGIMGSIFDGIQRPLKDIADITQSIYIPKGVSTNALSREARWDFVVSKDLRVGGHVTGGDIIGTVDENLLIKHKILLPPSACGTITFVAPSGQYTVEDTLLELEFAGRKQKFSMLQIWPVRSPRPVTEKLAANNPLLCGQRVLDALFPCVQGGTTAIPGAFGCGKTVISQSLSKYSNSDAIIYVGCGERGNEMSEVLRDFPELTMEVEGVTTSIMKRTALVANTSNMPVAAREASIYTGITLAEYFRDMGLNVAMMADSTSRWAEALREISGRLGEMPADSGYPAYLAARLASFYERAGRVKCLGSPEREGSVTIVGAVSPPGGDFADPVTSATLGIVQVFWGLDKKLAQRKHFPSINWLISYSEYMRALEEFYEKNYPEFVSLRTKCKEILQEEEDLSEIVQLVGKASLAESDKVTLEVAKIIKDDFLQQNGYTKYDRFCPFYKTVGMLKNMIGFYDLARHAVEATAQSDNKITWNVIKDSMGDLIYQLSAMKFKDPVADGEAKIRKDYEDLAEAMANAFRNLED

Sequence of Hsp70 A (heat shock 70 kDa protein A) (P09446 whole entry): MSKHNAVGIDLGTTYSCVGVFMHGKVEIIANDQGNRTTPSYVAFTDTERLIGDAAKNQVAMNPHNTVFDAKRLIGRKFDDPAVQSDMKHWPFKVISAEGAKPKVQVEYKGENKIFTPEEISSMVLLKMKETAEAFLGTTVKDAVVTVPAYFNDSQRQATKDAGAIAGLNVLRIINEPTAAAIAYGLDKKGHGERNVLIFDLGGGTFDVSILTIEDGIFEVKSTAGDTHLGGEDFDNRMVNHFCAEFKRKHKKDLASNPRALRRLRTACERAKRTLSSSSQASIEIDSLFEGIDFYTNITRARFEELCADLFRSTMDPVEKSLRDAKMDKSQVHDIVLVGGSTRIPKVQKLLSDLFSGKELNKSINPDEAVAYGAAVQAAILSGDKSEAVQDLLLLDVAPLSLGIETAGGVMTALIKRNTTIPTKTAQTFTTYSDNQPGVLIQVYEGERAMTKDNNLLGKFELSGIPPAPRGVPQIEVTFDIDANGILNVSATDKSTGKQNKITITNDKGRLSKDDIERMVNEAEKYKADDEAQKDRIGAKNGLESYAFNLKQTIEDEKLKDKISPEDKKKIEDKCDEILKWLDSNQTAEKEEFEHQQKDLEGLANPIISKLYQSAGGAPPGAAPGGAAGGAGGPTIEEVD

Kd [1]: 0.117 ± 0.0163 µM
Kd [2]: 0.302 ± 0.0439 µM
SMILES: CCCCCCCCCC(C)=O [2-undecanone]
